The source of these data is PMC7539012, “Hyperphosphorylated tau aggregation and cytotoxicity modulators screen identified prescription drugs linked to Alzheimer's disease and cognitive functions” (Scientific Reports, 2020).

Each structure is given as a SMILES string. Counter-ions that a name gives are not always drawn. Like-named read-outs stand apart in the source and are kept apart here.

The assay concerns T1, 1N4R p-tau.
T1 construct: made in house; host or cells: E. coli (PIMAX system)
The experiment in a line: p-tau aggregation modulator screen of 1280-compound library (ThS fluorescence net change over 16 h).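 On ThS net change: 30 µM compound with 6 µM p-tau over 16 h.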 It is filed as biochemical. The arrangement: key to PTAI>2SD: *: PTAI>2SD. Conditions: for PTAI>2SD: flag: p-tau aggregation inhibitor, ThS net change more than 2 SD from mean.

The mark [1] stands for this setting: p-tau aggregation modulator screen of the compound library, ThS fluorescence net change.
Where [2] appears, read: p-tau aggregation modulator screen of 1280-compound library, ThS fluorescence net change.
The mark [3] stands for this setting: 1280-compound library screen, ThS fluorescence net change over 16 h.
Setting [4] is: p-tau aggregation modulator screen of 1280-compound library, […].
[5] abbreviates: 1280-compound library screen, […].
[6] abbreviates: library screen, ThS fluorescence net change over 16 h with p-tau.

As for `CCC1(c2ccccc2)NC(=O)N(C)C1=O` (centres unmarked) [Mephenytoin], under setting [1], the ThS net change amounted to 453. On to `CN1C(C)(C)CCCC1(C)C` [Pempidine tartrate], for which the ThS net change under setting [2] stood at 362. For the molecule `CCCCc1oc2ccccc2c1C(=O)c1cc(I)c(OCCN(CC)CC)c(I)c1` [Amiodarone hydrochloride], under setting [1], the ThS net change is 436. In turn, `CN(C)CCCN1c2ccccc2CCc2ccccc21` [Imipramine hydrochloride] displayed a ThS net change of 287.

In the case of `O=C(O)COC(=O)Cc1ccccc1Nc1c(Cl)cccc1Cl` [Aceclofenac], the ThS net change under setting [3] turned out to be 390. Consider `CC1=C(/C=C/C(C)=C/C=C/C(C)=C\C(=O)O)C(C)(C)CCC1` [Isotretinoin], for which the ThS net change under setting [3] was 389. Molecule `C[C@]1(Cn2ccnn2)[C@H](C(=O)O)N2C(=O)C[C@H]2S1(=O)=O` [Tazobactam] gave a ThS net change under setting [1] of 834. Turning to `CCOc1ccc(NC(C)=O)cc1` [Phenacetin], the ThS net change under setting [3] came out at 400.

For the molecule `COc1ccc(C(=O)NCc2cccnc2)cc1C(=O)NCc1cccnc1.O` [Picotamide monohydrate], the ThS net change under setting [4] came to 355.

Turning to `CC1=C(C(=O)O)N2C(=O)[C@@H](NC(=O)[C@H](N)c3ccc(O)cc3)[C@H]2SC1` [Cefadroxil], the ThS net change under setting [1] is on record as 413. With `O=C1CCC(N2C(=O)c3ccccc3C2=O)C(=O)N1` (centres unmarked) [Thalidomide], under setting [2], the ThS net change was determined as 334. In the case of `CC(=O)[C@H]1CC[C@H]2[C@@H]3C[C@H](C)C4=CC(=O)CC[C@]4(C)[C@H]3[C@@H](O)C[C@]12C` [Medrysone], the ThS net change under setting [3] is 388. Under setting [2], `NC(=O)c1ccc[n+]([C@@H]2O[C@H](COP(=O)([O-])OP(=O)(O)OC[C@H]3O[C@@H](n4cnc5c(N)ncnc54)[C@H](O)[C@@H]3O)[C@@H](O)[C@H]2O)c1` [Nadide] registered a ThS net change of 366.

Consider `CN[C@@H]1[C@@H](O)[C@@H](O[C@@H]2[C@@H](O)[C@H](O[C@H]3OC(CN)=CC[C@H]3N)[C@@H](N)C[C@H]2N)OC[C@]1(C)O` [Sisomicin sulfate], for which the ThS net change under setting [5] worked out at 381. The same measure, in the same setting: next, `OC(c1ccccc1)(c1ccccc1)C1CCNCC1` [Azacyclonol]: 400. `CC(C[N+](C)(C)C)OC(N)=O` (centres unmarked) [Bethanechol chloride]: under setting [1], the ThS net change is recorded as 418. Under setting [2], `NS(=O)(=O)c1cc2c(cc1C(F)(F)F)NC(Cc1ccccc1)NS2(=O)=O` (centres unmarked) [Bendroflumethiazide] registered a ThS net change of 357. Under setting [2], `C[C@H](CCC(=O)O)[C@H]1CC[C@H]2[C@@H]3C(=O)C[C@@H]4CC(=O)CC[C@]4(C)[C@H]3CC(=O)[C@]12C` [Dehydrocholic acid] registered a ThS net change of 331. Molecule `[H]/N=C(/N)NS(=O)(=O)c1ccc(N)cc1` [Sulfaguanidine] returned a ThS net change under setting [2] of 364. For `COC(=O)Nc1nc2ccc(Sc3ccccc3)cc2[nH]1` [Fenbendazole], the “PTAI>2SD” value is given as “*”. Moreover, the ThS net change under setting [6] was 148. For the molecule `CN1CCc2cccc3c2[C@H]1Cc1ccc(O)c(O)c1-3.CN1CCc2cccc3c2[C@H]1Cc1ccc(O)c(O)c1-3.Cl.Cl.O`, the ThS net change is given as 233. As to `S=c1[nH]cnc2nc[nH]c12` [Mercaptopurine], the ThS net change under setting [1] came to 426. Molecule `CC(C)NC[C@H](O)COc1cccc2ccccc12` [(S)-propranolol hydrochloride] displayed a ThS net change of 434.

Molecule `O=C(COc1ccc(Cl)cc1)N1CCN(Cc2ccc3c(c2)OCO3)CC1` [Fipexide hydrochloride] yielded a ThS net change under setting [2] of 359. Molecule `O=C1c2c(O)ccc(O)c2C(=O)c2c(NCCNCCO)ccc(NCCNCCO)c21` [Mitoxantrone dihydrochloride] came in with a ThS net change of 328. On to `O=P1(NCCCl)OCCCN1CCCl` (centres unmarked) [Ifosfamide], for which the ThS net change under setting [4] is 374. Consider `Cc1onc(-c2c(F)cccc2Cl)c1C(=O)N[C@@H]1C(=O)N2[C@@H]1SC(C)(C)[C@@H]2C(=O)O` [Flucloxacillin sodium], for which, under setting [1], the ThS net change is given as 443. On the same count and under the same terms, next, `CCC(Cc1c(I)cc(I)c(N)c1I)C(=O)O` (centres unmarked) [Iopanoic acid]: 464. `CCC1(c2ccc(N)cc2)CCC(=O)NC1=O` (centres unmarked) [Glutethimide, para-amino]: the ThS net change turned out to be 340. The molecule `C#CCN[C@@H]1CCc2ccccc21` [Rasagiline] displayed a ThS net change under setting [1] of 447. Turning to `CCN(CC)CCNc1ccc(CO)c2sc3ccccc3c(=O)c12` [Hycanthone], the “PTAI>2SD” value was “*”. Besides, the ThS net change under setting [6] stood at 171. With `CCc1cccc(CC)c1NC(=O)CN(CC(=O)O)CC(=O)O` [Etifenin], under setting [1], the ThS net change is on record as 414.

With `Nc1nc2[nH]nnc2c(=O)[nH]1` [Azaguanine-8], under setting [2], the ThS net change stood at 377.

`Nc1c2ccccc2nc2ccccc12` [Aminacrine] had a ThS net change under setting [3] of 408. For `c1ccc([C@H]2CN3CCSC3=N2)cc1` [Levamisole hydrochloride], the ThS net change under setting [2] is 376. Still for that read-out and setting: under `CCn1cc(C(=O)O)c(=O)c2cc(F)c(N3CCNCC3)nc21` [Enoxacin] stands 378. `Cl.NCC(O)c1ccc(O)cc1` (racemic) [(+,-)-Octopamine hydrochloride]: under setting [1], the ThS net change was found to be 413. Turning to `CC[C@H](C)[C@H]1O[C@]2(C=C[C@@H]1C)C[C@@H]1C[C@@H](C/C=C(\C)[C@@H](O[C@H]3C[C@H](OC)[C@@H](O[C@H]4C[C@H](OC)[C@@H](O)[C@H](C)O4)[C@H](C)O3)[C@@H](C)/C=C/C=C3\CO[C@@H]4[C@H](O)C(C)=C[C@@H](C(=O)O1)[C@]34O)O2` [Avermectin B1a], the ThS net change under setting [1] came to 676.

Take `CO[C@H]1/C=C/O[C@@]2(C)Oc3c(C)c(O)c4c(O)c(c5c(nc6cc(C)ccn65)c4c3C2=O)NC(=O)/C(C)=C\C=C\[C@H](C)[C@H](O)[C@@H](C)[C@@H](O)[C@@H](C)[C@H](OC(C)=O)[C@@H]1C` [Rifaximin]: the “PTAI>2SD” value was “*”. Under setting [6], this molecule registered a ThS net change of 112. Under setting [6], `COc1ccc(C(=O)c2ccccc2O)c(O)c1` [Dioxybenzone] had a ThS net change of 296. `C[C@]12CCC(=O)C=C1C=C[C@@H]1[C@@H]2CC[C@@]2(C)[C@H]1CC[C@@]21CCC(=O)O1` [Canrenone]: under setting [1], the ThS net change came out at 462. The same measure, in the same setting: next, `COc1ccc2[nH]c([S+]([O-])Cc3ncc(C)c(OC)c3C)nc2c1` (centres unmarked) [Omeprazole]: 454.

For `CC1(C)O[C@@H]2C[C@H]3[C@@H]4CCC5=CC(=O)CC[C@]5(C)[C@@]4(F)[C@@H](O)C[C@]3(C)[C@]2(C(=O)CCl)O1` [Halcinonide], under setting [3], the ThS net change came out at 384.

Turning to `Cc1nc2n(c(=O)c1CCN1CCC(c3noc4cc(F)ccc34)CC1)CCCC2` [Risperidone], the ThS net change was 447. On to `CN(C)[C@@H]1C(O)=C(C(N)=O)C(=O)[C@@]2(O)C(O)=C3C(=O)c4c(O)ccc(Cl)c4[C@@H](O)[C@H]3C[C@@H]12` [Demeclocycline hydrochloride], for which the “PTAI>2SD” value is “*”. The molecule further gave a ThS net change under setting [6] of 117. For the molecule `CC(Cc1ccc(O)cc1)NCC(O)c1cc(O)cc(O)c1` (centres unmarked) [Fenoterol hydrobromide], under setting [5], the ThS net change was found to be 405. `COc1ccccc1OCC(O)CO` (centres unmarked) [Guaifenesin]: the ThS net change under setting [2] is given as 376. Molecule `NCCCCCC(=O)O` [Aminocaproic acid] came in with a ThS net change of 456.

Turning to `CC=CC1=C(C(=O)O)N2C(=O)[C@@H](NC(=O)[C@H](N)c3ccc(O)cc3)[C@H]2SC1` (mixture of isomers) [Cefprozil], the ThS net change under setting [1] amounted to 440.
